Assay type in all cases: in vivo
For series [1], the system named is ORYZA SATIVA, L. TEBONNET
Put plainly: Rice tolerance to post-transplant applications under flooded paddy conditions, ORYSAT (Rice, Tebonnet).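 Note: applied to flooded soil surface three days after transplanting.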 The conditions noted are these: post-transplant rice, rated three to four weeks after treatment. Put shortly:
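Rated on a visual 0–9 scale against untreated plants 3–4 weeks after application, rice (cv. Tebonnet) tolerance was tested by applying compounds (approx. 0.5–0.063 kg/ha, acetone/water 50/50) to flooded soil three days post-transplant, water kept 1.5–3 cm deep.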

For series [2], the system named is ABUTILON THEOPHRASTI, MEDIC. In words: Postemergence herbicidal evaluation, ABUTH (Velvetleaf). Particulars: rated four to five weeks after treatment, averaged. The essentials:
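This postemergence herbicide test used two-week-old velvetleaf seedlings grown in jiffy flats. Each compound was sprayed at 40 psi as a dispersion in 50/50 acetone/water with 0.5% TWEEN®20 surfactant. Plants then received routine greenhouse care. After four to five weeks, injury was scored visually on a 0-9 scale against a control, and replicate tests were averaged.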

The subject of another series is SAGITTARIA PYGMAEA, L. In words: Preemergence weed control under flooded paddy conditions, SAGPY (Arrowhead (Pygmaea)). The conditions noted are these: preemergence weeds, rated three to four weeks after treatment. The essentials: (§1)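 Visual 0-9 rating against untreated control, covering stand, vigor, malformation, size and chlorosis, scored three to four weeks post-treatment in a greenhouse. Application was into 1.5-3 cm flood water over silt loam sown at 0.5 cm. The 50/50 v/v aqueous/acetone doses were about 0.5, 0.25, 0.125 and 0.063 kg/ha.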

Series [3] concerns CHENOPODIUM ALBUM, L. In words: Preemergence herbicidal evaluation, CHEAL (Lambsquarters, Common). The conditions noted are these: four to five weeks after treatment. The essentials:
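Rated 0-9 by visual comparison with control (stand, vigor, malformation, size, chlorosis, overall appearance) four to five weeks after preemergence soil spray. Dose equivalent to about 0.125 to 0.50 kg per hectare, applied in aqueous acetone to freshly seeded cups kept in greenhouse.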

The next series concerns GALIUM APARINE. Put plainly: Preemergence herbicidal evaluation, GALAP (Galium). The conditions noted are these: four to five weeks after treatment. From the text: (§2) Results of herbicide evaluation are expressed on a rating scale (0-9). The scale is based upon a visual observation of plant stand, vigor, malformation, size, chlorosis and overall plant appearance as compared with a control.
(§3) The preemergence herbicidal activity of the test compounds of the present invention is exemplified by the following tests in which the seeds of a variety of monocotyledonous and dicotyledonous plants are separately mixed with potting soil and planted on top of approximately one inch of soil in separate pint cups. […] The treated cups are then placed on greenhouse benches, watered and cared for in accordance with conventional greenhouse procedures. From four to five weeks after treatment, the tests are terminated and each cup is examined and rated according to the rating system provided in Example 40.
(§4) The compounds evaluated are reported by compound number given in Example 40.

Series [4] deals with CYPERUS SEROTINUS, ROTTB. In words: Preemergence weed control under flooded paddy conditions, CYPSE (Flatsedge). Particulars: preemergence weeds, rated three to four weeks after treatment. The essentials:
as §1

For the next series, the system named is ZEA MAYS L. Put plainly: Preemergence herbicidal evaluation, ZEAMX (Corn, Field). Particulars: four to five weeks after treatment.
Description: as §2, §3, §4

The test system of series [5] is SETARIA VIRIDIS, (L) BEAU. In words: Postemergence herbicidal evaluation, SETVI (Foxtail, Green). Particulars: rated four to five weeks after treatment, averaged. Put shortly: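 Each value is a 0–9 visual rating of plant appearance compared with control, recorded 4–5 weeks after a 0.125–0.500 kg/ha spray, with multiple tests averaged.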
The subject of series [6] is CHENOPODIUM ALBUM, L. Put plainly: Postemergence herbicidal evaluation, CHEAL (Lambsquarters, Common). Particulars: rated four to five weeks after treatment, averaged. The essentials:
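Postemergence herbicidal activity on Chenopodium album was tested by spraying two-week-old seedlings grown in jiffy flats with compound in acetone/water (50/50) plus 0.5% TWEEN®20, using a 40 psi nozzle. Four to five weeks after treatment, stand, vigor, malformation, size, chlorosis and overall appearance were scored 0-9 relative to controls, with repeat tests averaged.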

Series [7] relates to GLYCINE MAX(L) MERR. CV. WILLIAMS
Put plainly: Preemergence herbicidal evaluation, GLXMAW (Soybean, Williams). The conditions noted are these: four to five weeks after treatment.
Description: as §2, §3, §4

Series [8] deals with ECHINOCHLOA CRUS-GALLI, (L) BEAU. Put plainly: Preemergence herbicidal evaluation, ECHCG (Barnyardgrass). Particulars: four to five weeks after treatment.
Description: as §2, §3, §4

In a further series the test system is IPOMOEA SPP. Put plainly: Postemergence herbicidal evaluation, IPOSS (Morningglory spp.). Particulars: rated four to five weeks after treatment, averaged. The essentials: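 In this greenhouse postemergence herbicide test on Ipomoea spp. (morningglory), compounds in 50/50 acetone/water with 0.5% TWEEN®20 were sprayed at 40 psi onto seedlings about two weeks old grown in jiffy flats. After four to five weeks, injury was scored on a 0-9 scale covering stand, vigor, malformation, size, chlorosis and overall appearance versus control, with repeat tests averaged.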

In series [9] the test system is CASSIA OBTUSIFOLIA, L. Put plainly: Postemergence herbicidal evaluation, CASOB (Sicklepod). Particulars: rated four to five weeks after treatment, averaged. The essentials: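 Ratings (0-9) reflect visual stand, vigor, malformation, size and chlorosis compared with untreated plants, assessed 4-5 weeks after postemergence spraying. Treatment was applied to roughly two-week-old seedlings at about 0.125-0.500 kg/ha in acetone/water with 0.5% Tween 20; replicate tests were averaged.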

Series [10] concerns AMBROSIA ARTEMISIIFOLIA, L. In words: Postemergence herbicidal evaluation, AMBEL (Ragweed, Common). The conditions noted are these: rated four to five weeks after treatment, averaged. Put shortly: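 Postemergence herbicidal activity on AMBEL (common ragweed) was assessed on two-week-old seedlings grown in jiffy flats. Treatment solutions of 50/50 acetone/water with 0.5% TWEEN®20 surfactant were sprayed at 40 psi. After four to five weeks in the greenhouse, plants were scored 0-9 against a control for stand, vigor, malformation, size, chlorosis and overall appearance, with multiple tests averaged.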

Series [11] relates to ECHINOCHLOA ORYZOIDES (ARD.)FRITSCH. In words: Preemergence weed control under flooded paddy conditions, ECHORC (Watergrass (Calif.)). The conditions noted are these: preemergence weeds, rated three to four weeks after treatment. Put shortly:
as §1

Series [12] deals with CASSIA OBTUSIFOLIA, L. Put plainly: Preemergence herbicidal evaluation, CASOB (Sicklepod). The conditions noted are these: four to five weeks after treatment.
Description: as §2, §3, §4

On to `CCOC(=O)Cn1c(=O)n(CC(=O)OC)c(=O)n(-c2cc(Oc3ccc(C(F)(F)F)cc3Cl)ccc2[N+](=O)[O-])c1=O` [Compound 6, 1-Ethyl methyl 5-{5-[(2-chloro-α,α,α-tri-fluoro-p-tolyl)oxy]-2-nitrophenyl}dihydro-2,4,6-trioxo-s-triazine-1,3(2H,4H)-diacetate], for which the “ORYSAT herbicidal rating (rice tolerance)” value (“ORYSAT herbicidal rating” for short) in series [1] (Rate 0.125 kg/ha), in series [1] (Rate 0.250 kg/ha) and in series [1] (Rate 0.500 kg/ha) was 1.0 in each case. For the same compound, the “ABUTH, herbicide rating (0-9)” value in [2] (Rate 0.125 kg/ha), in [2] (Rate 0.250 kg/ha) and in series [2] (Rate 0.500 kg/ha) was 9.0 in each case. The SAGPY herbicidal rating in the series with SAGITTARIA PYGMAEA, L. (Rate 0.125 kg/ha) was determined as 0.0; in the series on SAGITTARIA PYGMAEA, L. (Rate 0.250 kg/ha), 0.0; in the series with SAGITTARIA PYGMAEA, L. (Rate 0.500 kg/ha), 0.0. For the same compound, the CHEAL rating in the series with CHENOPODIUM ALBUM, L. [3] (Rate 0.125 kg/ha) was 9.0; in the series on CHENOPODIUM ALBUM, L. [3] (Rate 0.250 kg/ha) it was 9.0; in the series on CHENOPODIUM ALBUM, L. [3] (Rate 0.500 kg/ha), 9.0. The GALAP rating with GALIUM APARINE (Rate 0.125 kg/ha), in the series on GALIUM APARINE (Rate 0.250 kg/ha) and with GALIUM APARINE (Rate 0.500 kg/ha) was 9.0 throughout.
`C#CCn1c(=O)n(CC(=O)OCC)c(=O)n(-c2cc(Oc3ccc(C(F)(F)F)cc3Cl)ccc2[N+](=O)[O-])c1=O` [Compound 7, Ethyl 3-{5-[(2-chloro-α,α,α-trifluoro-p-tolyl)oxy]-2-nitrophenyl}tetrahydro-2,4,6-trioxo-5-(2-propynyl)-s-triazine-1(2H)-acetate]: the “ORYSAT herbicidal rating” value was 0.0 in [1] (Rate 0.125 kg/ha), 0.0 in series [1] (Rate 0.250 kg/ha) and 1.0 in [1] (Rate 0.500 kg/ha). The SAGPY herbicidal rating in the series with SAGITTARIA PYGMAEA, L. (Rate 0.125 kg/ha) was determined as 0.0; with SAGITTARIA PYGMAEA, L. (Rate 0.250 kg/ha) it was 0.0; in the series with SAGITTARIA PYGMAEA, L. (Rate 0.500 kg/ha), 0.0. The values for the GALAP rating in the series with GALIUM APARINE (Rate 0.125 kg/ha), with GALIUM APARINE (Rate 0.250 kg/ha) and in the series with GALIUM APARINE (Rate 0.500 kg/ha) were 4.0, 8.0 and 9.0, respectively. Moreover, the CYPSE herbicidal rating in series [4] (Rate 0.125 kg/ha) and in series [4] (Rate 0.250 kg/ha) was 0.0 each time.
Turning to `CCOC(=O)Cn1c(=O)n(C)c(=O)n(-c2cc(Oc3c(F)cc(C(F)(F)F)cc3Cl)ccc2C#N)c1=O` [Compound 11, Ethyl 3-{5-[(2-chloro-α,α,α,6-tetrafluoro-p-tolyl)oxy]-2-cyanophenyl}tetrahydro-5-methyl-2,4,6-trioxo-s-triazine-1(2H)-acetate], the ZEAMX rating with ZEA MAYS L. (Rate 0.125 kg/ha), in the series with ZEA MAYS L. (Rate 0.250 kg/ha) and with ZEA MAYS L. (Rate 0.500 kg/ha) was 0.0 throughout. Also, the “SETVI, herbicide rating (0-9)” value in series [5] (Rate 0.125 kg/ha), in series [5] (Rate 0.250 kg/ha) and in series [5] (Rate 0.500 kg/ha) was 9.0 throughout. The “CHEAL, herbicide rating (0-9)” value with CHENOPODIUM ALBUM, L. [6] (Rate 0.125 kg/ha) turned out to be 9.0; with CHENOPODIUM ALBUM, L. [6] (Rate 0.250 kg/ha), 9.0; in the series with CHENOPODIUM ALBUM, L. [6] (Rate 0.500 kg/ha) it was 9.0. Moreover, the GLXMAW rating in series [7] (Rate 0.125 kg/ha), in [7] (Rate 0.250 kg/ha) and in series [7] (Rate 0.500 kg/ha) was 0.0 throughout. For the same compound, the ECHCG rating in series [8] (Rate 0.125 kg/ha), in series [8] (Rate 0.250 kg/ha) and in [8] (Rate 0.500 kg/ha) was 0.0 in each case. Also, the “ORYSAT herbicidal rating” value in series [1] (Rate 0.063 kg/ha) was 0.0; in series [1] (Rate 0.125 kg/ha), 0.0; in series [1] (Rate 0.250 kg/ha), 1.0; in series [1] (Rate 0.500 kg/ha), 1.0. For the same compound, the “ABUTH, herbicide rating (0-9)” value in series [2] (Rate 0.125 kg/ha), in series [2] (Rate 0.250 kg/ha) and in series [2] (Rate 0.500 kg/ha) was 9.0 each time. The “IPOSS, herbicide rating (0-9)” value in the series on IPOMOEA SPP. (Rate 0.125 kg/ha), in the series with IPOMOEA SPP. (Rate 0.250 kg/ha) and with IPOMOEA SPP. (Rate 0.500 kg/ha) was 9.0 in each case. In addition, the SAGPY herbicidal rating was 0.0 with SAGITTARIA PYGMAEA, L. (Rate 0.063 kg/ha); 0.0 with SAGITTARIA PYGMAEA, L. (Rate 0.125 kg/ha); 0.0 in the series on SAGITTARIA PYGMAEA, L. (Rate 0.250 kg/ha); 0.0 in the series on SAGITTARIA PYGMAEA, L. (Rate 0.500 kg/ha). Also, the CHEAL rating stood at 9.0 in the series with CHENOPODIUM ALBUM, L. [3] (Rate 0.125 kg/ha); 9.0 in the series on CHENOPODIUM ALBUM, L. [3] (Rate 0.250 kg/ha); 9.0 with CHENOPODIUM ALBUM, L. [3] (Rate 0.500 kg/ha). Further, the “CASOB, herbicide rating (0-9)” value in the series with CASSIA OBTUSIFOLIA, L. [9] (Rate 0.125 kg/ha) was determined as 9.0; in the series on CASSIA OBTUSIFOLIA, L. [9] (Rate 0.250 kg/ha) it was 9.0; with CASSIA OBTUSIFOLIA, L. [9] (Rate 0.500 kg/ha), 9.0. Further, the “AMBEL, herbicide rating (0-9)” value in series [10] (Rate 0.125 kg/ha), in series [10] (Rate 0.250 kg/ha) and in [10] (Rate 0.500 kg/ha) was 9.0 in each case. For the same compound, the ECHORC herbicidal rating in series [11] (Rate 0.063 kg/ha), in [11] (Rate 0.125 kg/ha), in series [11] (Rate 0.250 kg/ha) and in series [11] (Rate 0.500 kg/ha) was 9.0 in each case. Besides, the CASOB rating was 0.0 in the series with CASSIA OBTUSIFOLIA, L. [12] (Rate 0.125 kg/ha); 0.0 with CASSIA OBTUSIFOLIA, L. [12] (Rate 0.250 kg/ha); 0.0 in the series with CASSIA OBTUSIFOLIA, L. [12] (Rate 0.500 kg/ha).

Source of the values: EP0745595A1, “3-(3-Aryloxyphenyl)-1-(substituted methyl)-s-triazine-2,4,6-oxo or thiotrione herbicidal agents” (American Cyanamid Company, priority 1995, dated 1996).
